Where two headings read alike, the source gives them in different places.
How the values were obtained:
Assay type in all cases: physicochemical
[1] = Headspace above the wet washed hair: relative partition parameter headspace/shampoo (SPME-GC)
Protocol: (§1) The procedure is analogous in all examples.
The example reflects the scent impression, which is perceived from freshly washed hair. The shampoo is prepared as is generally customary. The mixture of 39 odorants is incorporated into the above-mentioned shampoo (1st) in an amount of 1%. A hair tress (2.5 g) is washed in 100 ml of a 20% shampoo solution in water by immersing 5-10 times and stirring, and then rinsed in 100 ml of clear water by immersing it three times. The hair tress is carefully patted with thin cellulose. The moist hair tress is transferred to a 100 ml Erlenmeyer flask sealed with a septum and left to stand for 3 h. The headspace above the washed and rinsed hair tress is extracted over 15 min using solid phase microextraction (SPME). The SPME needle is desorbed in a GC injector, and a gas chromatogram is recorded. […] The analytical results are then used mathematically as described above.

[2] = Headspace above the shampoo: relative partition parameter (SPME-GC); conditions: log of amount in headspace relative to amount in shampoo; 1% odorant mixture, SPME 15 min
Protocol: as §1
The example reflects the scent impression, which is perceived from a freshly opened bottle of shampoo. The mixture of 39 odorants is incorporated into the above-mentioned shampoo (1) in an amount of 1%. 20 g of the shampoo are transferred to a 100 ml Erlenmeyer flask sealed with a septum. The headspace above the shampoo is extracted using a SPME over 15 min. […] The analytical results are then used mathematically as described above.

[3] = Headspace above the soap bar: relative partition parameter (SPME-GC)
Protocol: as §1
The example reflects the scent impression, which is perceived from a fresh bar of soap. […] 20 g of the grated soap are transferred to a 100 ml Erlenmeyer flask sealed with a septum. The headspace above the shampoo is extracted using a SPME over 15 min. […] The analytical results are then used mathematically as described above.

[4] = Headspace above the washing powder: relative partition parameter (SPME-GC)
Protocol: as §1
The example reflects the scent impression, which is perceived from a freshly opened pack of laundry detergent. The mixture of 39 odorants is incorporated in the above-mentioned washing powder in an amount of 0.5%. 20 g of the washing powder are transferred to a 100 ml Erlenmeyer flask sealed with a septum. The headspace above the shampoo is extracted using a SPME over 15 min. […] The analytical results are then used mathematically as described above.

[5] = Headspace above the candle wax: relative partition parameter (SPME-GC); conditions: log of amount in headspace relative to amount in candle wax; 5% odorant mixture, grated nonburning candle, SPME 15 min
Protocol: as §1
The example reflects the scent impression, which is perceived from a nonburning candle. The mixture of 39 odorants is incorporated into a candle in an amount of 5%. 20 g of the grated candle are transferred to a 100 ml Erlenmeyer flask sealed with a septum. The headspace above the candle is extracted using a SPME over 15 min. […] The analytical results are then used mathematically as described above.

[6] = Headspace above the fresh gel room air freshener: relative partition parameter (SPME-GC); conditions: log of amount in headspace relative to amount in gel; 5% odorant mixture, 10 liter vessel, 1 h, SPME 15 min
Protocol: as §1
The example reflects the scent impression, which is perceived above a fresh gel room air freshener. The mixture of 39 odorants is incorporated into an air freshener in an amount of 5%. 100 g of the air freshener are placed in its customary presentation form in a large sealed 10 liter vessel. The air freshener is left to stand for one hour. The headspace above the air freshener is extracted using a SPME over 15 min. […] The analytical results are then used mathematically as described above.

[7] = Headspace above the solution of WC scented block cleaner: relative partition parameter (SPME-GC); conditions: log of amount in headspace above 1% solution in water relative to amount in WC block; 1% odorant mixture, SPME 15 min
Protocol: as §1
The example reflects the scent impression, which is perceived from a WC scented block cleaner. The mixture of 39 odorants is incorporated into the toilet block in an amount of 1%. A 1% solution of the toilet block in water is prepared. 20 ml of this solution are transferred to a 100 ml Erlenmeyer flask sealed with a septum. The headspace above the shampoo is extracted by means of a SPME over 15 min. […] The analytical results are then used mathematically as described above.

[8] = log of amount in headspace above wet washed hair relative to amount in shampoo, 1% odorant mixture, 3 h standing, SPME 15 min
[9] = log of amount in headspace relative to amount in soap, 1.2% odorant mixture, grated soap, SPME 15 min
[10] = log of amount in headspace relative to amount in washing powder, 0.5% odorant mixture, SPME 15 min

SMILES | Activity (logarithmic partition parameter above wet hair) [1, 8] | Activity (logarithmic partition parameter above shampoo) [2] | Activity (logarithmic partition parameter above soap) [3, 9] | Activity (logarithmic partition parameter above washing powder) [4, 10] | Activity (logarithmic partition parameter above candle wax) [5] | Activity (logarithmic partition parameter above gel room air fresheners) [6] | Activity (logarithmic partition parameter above dissolved WC scented block cleaners) [7] | Activity (logarithmic partition parameter above wet hair) [1] | Activity (logarithmic partition parameter above soap) [3] | Activity (logarithmic partition parameter above washing powder) [4]
CC(=O)O[C@@H]1C[C@H]2CC[C@]1(C)C2(C)C (racemic) [Isobornyl acetate] | −0.741 | −0.026 | 0.147 | 0.061 | −0.588 | 0.392 | −0.434 |  |  | 
CC(=O)OCc1ccccc1 [Benzyl acetate] | −1.006 | −0.293 | 0.538 | 0.224 | −0.244 | 0.594 | −1.552 |  |  | 
OCc1ccccc1 [Benzyl alcohol] | −1.867 | −0.759 | −0.088 | −0.389 | −0.364 | 0.148 |  |  |  | 
O=C(OCc1ccccc1)c1ccccc1O [Benzyl salicylate] |  |  |  | −2.349 |  |  | −3.166 |  |  | 
C=C1C2CCC(C2)C1(C)C (stereo not drawn) [Camphene] | −0.721 | 0.777 | 0.392 | 0.357 | 0.783 | −0.116 | −1.348 |  |  | 
C[C@@H]1CC[C@H]2C(C)(C)[C@H]3C[C@@]12CC[C@@]3(C)O [Cedrol] | −2.475 |  | −2.090 | −1.547 |  | −1.761 | −1.348 |  |  | 
CC(=O)O[C@]1(C)CC[C@@]23C[C@@H]1C(C)(C)[C@@H]2CC[C@H]3C [Cedryl acetate] |  |  |  |  |  | −2.566 | −1.161 | −2.685 | −2.483 | −1.971
CC(C)=CCCC(C)CCO (stereo not drawn) [Citronellol] | −1.818 | −1.406 | −0.787 | −0.780 | −1.159 | −0.158 | −1.575 |  |  | 
CC(=O)OC(C)(C)Cc1ccccc1 [DMBCA, dimethylbenzylcarbinyl acetate] | −1.127 | −0.513 | 0.059 | −0.041 | −0.856 | 0.125 | −0.992 |  |  | 
CCOC(=O)c1ccccc1C(=O)OCC [Diethyl phthalate] |  |  | −1.742 | −2.124 | −2.459 | −2.303 |  |  |  | 
C=CC(C)CCCC(C)(C)O (stereo not drawn) [Dihydromyrcenol] | −1.056 | −0.287 | 0.076 | 0.184 | −0.324 | 0.460 | −1.131 |  |  | 
C=CCc1ccc(O)c(OC)c1 [Eugenol] | −2.257 |  | −1.435 | −1.440 | −0.822 | −0.653 | −2.412 |  |  | 
CCCCCC/C(C=O)=C\c1ccccc1 [Hexylcinnamaldehyde, alpha] | −2.690 |  | −2.176 | −1.559 |  |  | −1.413 |  |  | 
CC(CC=O)CCCC(C)(C)O (stereo not drawn) [Hydroxycitronellal] | −2.381 |  | −1.804 | −1.609 | −1.869 | −1.161 |  |  |  | 
CC(C)CCOC(=O)c1ccccc1O [Isoamyl salicylate] | −1.612 | −1.716 | −1.190 | −1.467 |  | −1.544 | −0.870 |  |  | 
C=C(C)[C@H]1CC=C(C)CC1 [Limonene D] | −0.183 | 0.965 | 0.748 |  |  | 0.062 | −1.102 |  |  | 

Source: US6741954B2, “Selection method for odorants” (Symrise GmbH & Co. KG, priority 2000, dated 2004)
